Measurements taken from patent US6914045B2, “Glycopeptide antibiotics” (Wyeth Holdings Corporation, priority 2001, dated 2005).
Values after ≈ are worked out from the molar mass of the structure shown. Values joined by “and” are separate entries in the source; they are usually repeats but may differ in a detail not shown here. Equal entries are not always repeated.

Legend:
[1] = test system: Staphylococcus aureus; experiment: zone of inhibition, agar well assay plate; format: cell-based; details: 25 μl of extract per 5 mm well, incubated overnight at 37° C.
Experimental: Protocol for Assay Plate Staphylococcus aureus
Inoculate 10 mL of Tryptic Soy Broth with a loopful of slant culture, Staphylococcus aureus, and place in a stationary rack at 37° C. After 16-18 hour incubation, the Optical Density (OD) of the culture is read@A600 nm, using a 1:10 dilution. OD should be between 0.1-0.3, and if not adjust with Tryptic Soy Broth. A 40 mL sample of Nutrient Agar, pH 6.8 is inoculated with 90 ul of S. aureus culture and poured into a sterile petri dish. When the agar has solidified, wells (5 mm) are plated using an automated welling device. Wells are inoculated with 25 μl of extract and incubated overnight at 37° C. Zones of inhibition are measured and recorded the following morning.

[2] = test system: Enterococcus sp.; experiment: in vitro antibacterial evaluation, MIC by broth dilution; format: cell-based; details: broth dilution, 18 hours at 35° C.
Outline: (§1)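 Read-out: the lowest concentration at which the test strain fails to grow. Serial dilutions (64-0.06 μg/mL) in Muller-Hinton II […], 5×10^5 CFU/mL inoculum, NCCLS M7-A2 procedure.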

[3] = test system: Escherichia coli; experiment: as above; format: cell-based; details: 18 hours at 35° C.
Outline: as §1

[4] = test system: Staphylococcus sp.; experiment: as above; format: cell-based; details: broth dilution, 18 hours at 35° C.
Outline: as §1

[5] = test system: Streptococcus sp.; experiment: as above; format: cell-based; details: broth dilution, 18 hours at 35° C.
Outline: as §1

[6] = test system: Enterococcus faecalis (GC 6189); experiment: acute lethal infection in mice; format: in vivo; details: female CD-1 mice, intraperitoneal challenge, intravenous 30 min. after infection, 7 day survival
Outline: (§2)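 Intraperitoneal challenge of female CD-1 mice with a bacterial dose lethal to untreated animals within 24-48 hr; single iv treatment 30 min later, 5 mice per dose level. Survival is scored at day 7 and pooled from three experiments to give the median effective dose.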

[7] = test system: Staphylococcus aureus-SMITH (GC 4543); experiment: acute lethal infection in mice; format: in vivo; details: acute lethal infection, female CD-1 mice, intraperitoneal challenge, intravenous 30 min. after infection, 7 day survival
Outline: as §2

CCCCCC(=O)OC1C(O)C(CO)OC(OC2C(CO)OC(Oc3ccc(CC4NC(=O)C(C(C)c5ccccc5)NC(=O)CNC(=O)C(CO)NC(=O)C(C(O)C5CNC(=N)N5C5OC(CO)C(O)C(O)C5O)NC(=O)C(C(O)C5CNC(=N)N5)NC4=O)cc3)C(O)C2O)C1O (stereo not drawn) [Example 273b, Cyclo[glycyl-β-methylphenylalanyl-O-[4-O-(3-O-hexanoyl-hexopyranosyl)-hexopyranosyl]tyrosyl-3-(2-iminoimidazolidin-4-yl)seryl-3-(3-hexopyranosyl-2-iminoimidazolidin-4-yl)serylseryl]]
Zone of Inhibition vs. S. aureus [1]: 9 mm and 8 mm

CCCCCCC(=O)OC1C(OC2C(CO)OC(Oc3ccc(CC4NC(=O)C(C(C)c5ccccc5)NC(=O)CNC(=O)C(CO)NC(=O)C(C(O)C5CNC(=N)N5C5OC(CO)C(O)C(O)C5O)NC(=O)C(C(O)C5CNC(=N)N5)NC4=O)cc3)C(O)C2O)OC(CO)C(O)C1O (stereo not drawn) [Example 274a, Cyclo[glycyl-β-methylphenylalanyl-O-[4-O-(2-O-heptanoyl-hexopyranosyl)-hexopyranosyl]tyrosyl-3-(2-iminoimidazolidin-4-yl)seryl-3-(3-hexopyranosyl-2-iminoimidazolidin-4-yl)serylseryl]]
Zone of Inhibition vs. S. aureus [1]: 9 mm

CCCCCCC(=O)OC1C(O)C(CO)OC(OC2C(CO)OC(Oc3ccc(CC4NC(=O)C(C(C)c5ccccc5)NC(=O)CNC(=O)C(CO)NC(=O)C(C(O)C5CNC(=N)N5C5OC(CO)C(O)C(O)C5O)NC(=O)C(C(O)C5CNC(=N)N5)NC4=O)cc3)C(O)C2O)C1O (stereo not drawn) [Example 274b, Cyclo[glycyl-β-methylphenylalanyl-O-[4-O-(3-O-heptanoyl-hexopyranosyl)-hexopyranosyl]tyrosyl-3-(2-iminoimidazolidin-4-yl)seryl-3-(3-hexopyranosyl-2-iminoimidazolidin-4-yl)serylseryl]]
Zone of Inhibition vs. S. aureus [1]: 10 mm

CCC(C)CC(=O)OC1C(CO)OC(OC2C(CO)OC(Oc3ccc(CC4NC(=O)C(C(C)c5ccccc5)NC(=O)CNC(=O)C(CO)NC(=O)C(C(O)C5CNC(=N)N5C5OC(CO)C(O)C(O)C5O)NC(=O)C(C(O)C5CNC(=N)N5)NC4=O)cc3)C(O)C2O)C(O)C1O (stereo not drawn) [Example 271c, Cyclo[glycyl-β-methylphenylalanyl-O-[4-O-[4-O-(3-methylpentanoyl)hexopyranosyl]-hexopyranosyl]tyrosyl-3-(2-iminoimidazolidin-4 yl)seryl-3-(3-hexopyranosyl-2-iminoimidazolidin-4-yl)serylseryl]]
Zone of Inhibition vs. S. aureus [1]: 12 mm

CC(c1ccccc1)C1NC(=O)CNC(=O)C(CO)NC(=O)C(C(O)C2CNC(=N)N2C2OC(CO)C(O)C(O)C2O)NC(=O)C(C(O)C2CNC(=N)N2)NC(=O)C(Cc2ccc(OC3OC(CO)C(OC4OC5COC(Cc6ccc(F)cc6)OC5C(O)C4O)C(O)C3O)cc2)NC1=O (stereo not drawn) [Example 121, Cyclo[glycyl-β-methylphenylalanyl-O-[4-O-[4,6-O-(4-fluorophenethylidene)hexopyranosyl]-hexopyranosyl]tyrosyl-3-(2-iminoimidazolidin-4-yl)seryl-3-(3-hexopyranosyl-2-iminoimidazolidin-4-yl)serylseryl]]
MIC Enterococcus avium (GC 4558) ([2]; Enterococcus avium (GC 4558)): 4 µg/mL (≈ 2.83 µM) | MIC Enterococcus faecalis (ATCC 29212) ([2]; Enterococcus faecalis (ATCC 29212)): 2 µg/mL (≈ 1.41 µM) | MIC Enterococcus faecalis (GC 2242) ([2]; Enterococcus faecalis (GC 2242)): 2 µg/mL (≈ 1.41 µM) | MIC Enterococcus faecalis (GC 2691) ([2]; Enterococcus faecalis (GC 2691)): 4 µg/mL (≈ 2.83 µM) | MIC Enterococcus faecalis (GC 3059) ([2]; Enterococcus faecalis (GC 3059)): 2 µg/mL (≈ 1.41 µM) | MIC Enterococcus faecalis (GC 4552) ([2]; Enterococcus faecalis (GC 4552)): 2 µg/mL (≈ 1.41 µM) | MIC Enterococcus faecalis (GC 4553) ([2]; Enterococcus faecalis (GC 4553)): 4 µg/mL (≈ 2.83 µM) | MIC Enterococcus faecalis (GC 4554) ([2]; Enterococcus faecalis (GC 4554)): 2 µg/mL (≈ 1.41 µM) | MIC Enterococcus faecalis (GC 6189) ([2]; Enterococcus faecalis (GC 6189)): 2 µg/mL (≈ 1.41 µM) | MIC Enterococcus faecium (GC 2243) ([2]; Enterococcus faecium (GC 2243)): 2 µg/mL (≈ 1.41 µM) | MIC Enterococcus faecium (GC 4556) ([2]; Enterococcus faecium (GC 4556)): 2 µg/mL (≈ 1.41 µM) | MIC Enterococcus faecium (GC 4557) ([2]; Enterococcus faecium (GC 4557)): 2 µg/mL (≈ 1.41 µM) | MIC Enterococcus faecalis (ATCC 29212) ([2]; strain ATCC 29212): 2 µg/mL (≈ 1.41 µM) | MIC Enterococcus faecalis (GC 2242) ([2]; strain GC 2242): 2 µg/mL (≈ 1.41 µM) | MIC Enterococcus faecium (GC 2243) ([2]; strain GC 2243): 2 µg/mL (≈ 1.41 µM) | MIC Enterococcus faecalis (GC 2691) ([2]; strain GC 2691): 4 µg/mL (≈ 2.83 µM) | MIC Enterococcus faecalis (GC 3059) ([2]; strain GC 3059): 2 µg/mL (≈ 1.41 µM) | MIC Enterococcus faecalis (GC 4552) ([2]; strain GC 4552): 2 µg/mL (≈ 1.41 µM) | MIC Enterococcus faecalis (GC 4553) ([2]; strain GC 4553): 4 µg/mL (≈ 2.83 µM) | MIC Enterococcus faecalis (GC 4554) ([2]; strain GC 4554): 2 µg/mL (≈ 1.41 µM) | MIC Enterococcus faecium (GC 4556) ([2]; strain GC 4556): 2 µg/mL (≈ 1.41 µM) | MIC Enterococcus faecium (GC 4557) ([2]; strain GC 4557): 2 µg/mL (≈ 1.41 µM) | MIC Enterococcus avium (GC 4558) ([2]; strain GC 4558): 4 µg/mL (≈ 2.83 µM) | MIC Enterococcus faecalis (GC 6189) ([2]; strain GC 6189): 2 µg/mL (≈ 1.41 µM) | MIC Escherichia coli (ATCC 25922) ([3]; strain ATCC 25922): 32 µg/mL (≈ 22.6 µM) | MIC Escherichia coli (GC 4559) ([3]; strain GC 4559): 32 µg/mL (≈ 22.6 µM) | MIC Escherichia coli (GC 4560) ([3]; strain GC 4560): 1 µg/mL (≈ 0.707 µM) | MIC Coagulase Negative Staphylococcus (GC 4547) [4]: 1 µg/mL (≈ 0.707 µM) | MIC Coagulase Negative Staphylococcus (GC 4548) [4]: 0.5 µg/mL (≈ 0.353 µM) | MIC Coagulase Negative Staphylococcus (GC 4549) [4]: 0.5 µg/mL (≈ 0.353 µM) | MIC Coagulase Negative Staphylococcus (GC 4551) [4]: 2 µg/mL (≈ 1.41 µM) | MIC Coagulase Negative Staphylococcus (GC 6257) [4]: 1 µg/mL (≈ 0.707 µM) | MIC Staphylococcus aureus (ATCC 29213) [4]: 1 µg/mL (≈ 0.707 µM) | MIC Staphylococcus aureus (GC 1131) [4]: 2 µg/mL (≈ 1.41 µM) | MIC Staphylococcus aureus (GC 3051) [4]: 1 µg/mL (≈ 0.707 µM) | MIC Staphylococcus aureus (GC 3053) [4]: 1 µg/mL (≈ 0.707 µM) | MIC Staphylococcus aureus (GC 4541) [4]: 1 µg/mL (≈ 0.707 µM) | MIC Staphylococcus aureus (GC 4542) [4]: 1 µg/mL (≈ 0.707 µM) | MIC Staphylococcus aureus (GC 4544) [4]: 2 µg/mL (≈ 1.41 µM) | MIC Staphylococcus aureus (GC 4545) [4]: 2 µg/mL (≈ 1.41 µM) | MIC Staphylococcus aureus-SMITH (GC 4543) [4]: 1 µg/mL (≈ 0.707 µM) | MIC Staphylococcus haemolyticus (GC 4546) [4]: 1 µg/mL (≈ 0.707 µM) | MIC Staphylococcus aureus (GC 1131) ([4]; inoculum 5×10^5 CFU/mL, strain GC 1131): 2 µg/mL (≈ 1.41 µM) | MIC Staphylococcus aureus (ATCC 29213) ([4]; strain ATCC 29213): 1 µg/mL (≈ 0.707 µM) | MIC Staphylococcus aureus (GC 3051) ([4]; strain GC 3051): 1 µg/mL (≈ 0.707 µM) | MIC Staphylococcus aureus (GC 3053) ([4]; strain GC 3053): 1 µg/mL (≈ 0.707 µM) | MIC Staphylococcus aureus (GC 4541) ([4]; strain GC 4541): 1 µg/mL (≈ 0.707 µM) | MIC Staphylococcus aureus (GC 4542) ([4]; strain GC 4542): 1 µg/mL (≈ 0.707 µM) | MIC Staphylococcus aureus (GC 4544) ([4]; strain GC 4544): 2 µg/mL (≈ 1.41 µM) | MIC Staphylococcus aureus (GC 4545) ([4]; strain GC 4545): 2 µg/mL (≈ 1.41 µM) | MIC Staphylococcus haemolyticus (GC 4546) ([4]; strain GC 4546): 1 µg/mL (≈ 0.707 µM) | MIC Coagulase Negative Staphylococcus (GC 4547) ([4]; strain GC 4547): 1 µg/mL (≈ 0.707 µM) | MIC Coagulase Negative Staphylococcus (GC 4548) ([4]; strain GC 4548): 0.5 µg/mL (≈ 0.353 µM) | MIC Coagulase Negative Staphylococcus (GC 4549) ([4]; strain GC 4549): 0.5 µg/mL (≈ 0.353 µM) | MIC Coagulase Negative Staphylococcus (GC 4551) ([4]; strain GC 4551): 2 µg/mL (≈ 1.41 µM) | MIC Coagulase Negative Staphylococcus (GC 6257) ([4]; strain GC 6257): 1 µg/mL (≈ 0.707 µM) | MIC Staphylococcus aureus-SMITH (GC 4543) ([4]; strain SMITH GC 4543): 1 µg/mL (≈ 0.707 µM) | MIC Streptococcus agalactiae (GC 4564) ([5]; Streptococcus agalactiae (GC 4564)): 0.25 µg/mL (≈ 0.177 µM) | MIC Streptococcus pneumoniae (ATCC 6301) ([5]; Streptococcus pneumoniae (ATCC 6301)): <0.06 µg/mL | MIC Streptococcus pneumoniae (GC 1894) ([5]; Streptococcus pneumoniae (GC 1894)): <0.06 µg/mL | MIC Streptococcus pneumoniae (GC 4565) ([5]; Streptococcus pneumoniae (GC 4565)): <0.06 µg/mL | MIC Streptococcus pyogenes (GC 4563) ([5]; Streptococcus pyogenes (GC 4563)): 0.25 µg/mL (≈ 0.177 µM) | MIC Streptococcus pneumoniae (ATCC 6301) ([5]; strain ATCC 6301): <0.06 µg/mL | MIC Streptococcus pneumoniae (GC 1894) ([5]; strain GC 1894): <0.06 µg/mL | MIC Streptococcus pyogenes (GC 4563) ([5]; strain GC 4563): 0.25 µg/mL (≈ 0.177 µM) | MIC Streptococcus agalactiae (GC 4564) ([5]; strain GC 4564): 0.25 µg/mL (≈ 0.177 µM) | MIC Streptococcus pneumoniae (GC 4565) ([5]; strain GC 4565): <0.06 µg/mL | median effective dose (ED50), Enterococcus faecalis (GC 6189) [6]: 0.5 mg/kg | median effective dose (ED50), Staphylococcus aureus-SMITH (GC 4543) [7]: 0.32 mg/kg
